Measured values taken from PMC11476419, “Analysis of Punicalin and Punicalagin Interaction with PDIA3 and PDIA1” (International Journal of Molecular Sciences, 2024).

Tests used:
[1] = target: T1, PDIA1 (Homo sapiens, UniProt P07237); assay: Intrinsic tryptophan fluorescence quenching; assay type: binding
T1 construct: The mature human PDIA1 with an N-terminal His6x-tag was expressed and purified; His6 (N); made in house
Procedure: (§1) In a previous article, we evaluated the ability of punicalagin to interact with PDIA1 and PDIA3 [40]. In this study, the results previously obtained were compared with those obtained using punicalin. The protein–ligand interaction was evaluated by intrinsic quenching analysis due to the presence, in both proteins, of aromatic amino acids, among which tryptophan residues represent the main source. Quenching analysis was performed on PDIA1 and PDIA3, in the reduced form, by adding increasing concentrations of punicalin and recording the fluorescence spectra of both proteins. […] Quenching of intrinsic tryptophan fluorescence of both proteins was assessed using the Stern–Volmer equation, as previously reported. To further characterize the binding process, fluorescence data were analyzed using the equation described by Bi et al. and the reiterative calculation process described by Sun et al., providing an estimated value of the dissociation constant (Kd). The values of the Stern–Volmer constant (KSV) and the Kd obtained for punicalin are summarized in Table 1 and compared with those obtained for punicalagin [40]. The comparison of the results confirms that punicalin can bind both PDIs, although showing a slightly lesser affinity with respect to punicalagin.
(§2) The mature recombinant form (devoid of the N-terminal […]) of the human PDIA3 protein was expressed and purified according to the procedure previously described. […] In both cases, protein purification was evaluated by SDS-PAGE and Coomassie Blue staining, while the concentration was spectrophotometrically estimated using the extinction coefficient (PDIA3 in the reduced form, ε280 = 44,810 M^−1cm^−1; PDIA1 in the reduced form, ε280 = 45,567 M^−1cm^−1).
(§3) Protein–ligand interactions were evaluated by titration of intrinsic fluorescence quenching. Protein mission spectra were recorded by a SPEX-FluoroMax spectrofluorometer (Horiba Scientific, Piscataway, NJ, USA) from 300 to 400 nm, with an excitation wavelength set at 290 nm, emission slit set width, a 2 nm bandpass, and a scan speed set at 120 nm min^−1. […] The emission spectrum of the protein was recorded and the fluorescence intensities at 338 nm, obtained in at least three independent titration experiments, were used for quenching analyses, as previously described. Quenching of intrinsic tryptophan fluorescence at 338 nm was analyzed by the Stern–Volmer equation (Fo/F = 1 + KSV[L]), where F and Fo are the fluorescence intensity, respectively with or without ligand (L), and KSV is the Stern–Volmer constant value. Fluorescence data at 338 nm were also analyzed using the equation described by Bi et al. and the reiterative calculation process described by Sun et al., providing an estimated value of Kd.

[2] = target: T2, PDIA3 (Homo sapiens, UniProt P30101); assay: Intrinsic tryptophan fluorescence quenching; assay type: binding
T2 construct: The mature recombinant form (devoid of the N-terminal […]) of the human PDIA3 protein was expressed and purified; made in house
T2 sequence (P30101 25-505): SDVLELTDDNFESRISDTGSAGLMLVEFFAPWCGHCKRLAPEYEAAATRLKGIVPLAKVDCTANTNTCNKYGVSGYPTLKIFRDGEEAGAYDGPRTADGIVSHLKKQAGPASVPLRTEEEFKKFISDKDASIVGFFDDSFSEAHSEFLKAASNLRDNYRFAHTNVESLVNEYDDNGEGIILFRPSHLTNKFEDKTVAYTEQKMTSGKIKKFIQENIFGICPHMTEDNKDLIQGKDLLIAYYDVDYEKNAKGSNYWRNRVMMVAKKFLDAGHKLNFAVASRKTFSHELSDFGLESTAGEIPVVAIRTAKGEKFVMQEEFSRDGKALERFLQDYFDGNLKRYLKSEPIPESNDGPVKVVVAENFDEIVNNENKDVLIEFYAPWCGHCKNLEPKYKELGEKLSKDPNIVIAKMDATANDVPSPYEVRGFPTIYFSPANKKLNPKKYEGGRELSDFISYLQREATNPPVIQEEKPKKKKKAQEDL
Procedure: as §1, §2, §3

T1 sequence (P07237 18-508): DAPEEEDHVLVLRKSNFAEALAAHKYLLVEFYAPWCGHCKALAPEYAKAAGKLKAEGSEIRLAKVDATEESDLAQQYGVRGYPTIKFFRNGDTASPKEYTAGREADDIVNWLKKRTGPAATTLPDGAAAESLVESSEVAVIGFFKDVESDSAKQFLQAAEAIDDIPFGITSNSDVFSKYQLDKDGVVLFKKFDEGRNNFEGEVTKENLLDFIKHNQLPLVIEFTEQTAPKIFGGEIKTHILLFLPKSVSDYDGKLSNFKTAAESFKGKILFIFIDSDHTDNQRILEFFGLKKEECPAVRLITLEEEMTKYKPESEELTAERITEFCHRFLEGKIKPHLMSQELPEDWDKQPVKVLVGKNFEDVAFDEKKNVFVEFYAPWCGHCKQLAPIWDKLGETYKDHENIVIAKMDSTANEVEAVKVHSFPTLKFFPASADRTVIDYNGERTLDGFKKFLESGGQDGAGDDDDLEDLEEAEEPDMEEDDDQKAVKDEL

Stern–Volmer constant (KSV) ([1]; reduced PDIA1 0.1 × 10^−6 M, pH 7.4, 25 °C, mean and SEM): 64.0 ± 0.4 M^−1 × 10^3
Kd ([1]; reduced PDIA1, pH 7.4, 25 °C, estimated from quenching data, read-out: dissociation constant (Kd)): 16 µM
Stern–Volmer constant (KSV) ([2]; reduced PDIA3 0.1 × 10^−6 M, pH 7.4, 25 °C, mean and SEM): 73.7 ± 0.7 M^−1 × 10^3
Kd ([2]; reduced PDIA3, pH 7.4, 25 °C, estimated from quenching data, read-out: dissociation constant (Kd)): 14 µM
SMILES: O=C1OC[C@H]2OC(O)[C@H](O)[C@@H](O)[C@@H]2OC(=O)c2cc(O)c(O)c(O)c2-c2c(O)c(O)c3oc(=O)c4c(c(O)c(O)c5oc(=O)c2c3c54)-c2c1cc(O)c(O)c2O (mixture of isomers) [Punicalin, punicalin]
